Data set [1] addresses T1, Cannabinoid receptor 2 (Homo sapiens, UniProt P34972). Put plainly: Positive allosteric modulator activity at human CB2R expressed in CHO-K1 cell membrane assessed as increase in [3H]CP55940 binding at 100 nM measured after 60 mins by liquid scintillation spectrometry. The class given is cell membranes.
The target of data set [2] is T1, Cannabinoid receptor 2. Put plainly: Positive allosteric modulator activity at human CB2R expressed in CHO-K1 cell membrane assessed as increase in [3H]CP55940 binding at 10 uM measured after 60 mins by liquid scintillation spectrometry. The class given is cell membranes.
The target in data set [3] is T1, Cannabinoid receptor 2. Put plainly: Positive allosteric modulator activity at human CB2R expressed in CHO-K1 cells assessed as potentiation of CP55940-stimulated beta-arrestin2 recruitment measured after 90 mins by PathHunter assay relative to control. The format is cell-based. The conditions noted are these: filed as positive allosteric modulator.
Data set [4] deals with T1, Cannabinoid receptor 2. Kind of data set: Positive allosteric modulator activity at human CB2R expressed in CHO-K1 cells assessed as potentiation of CP55940-stimulated inhibition of forskolin-induced cAMP accumulation measured after 90 mins by HitHunter cAMP assay. The class given is functional, cell-based. (In general: Cyclic AMP is a second messenger, typically raised through Gs and lowered through Gi signalling.)

For data set [5], the target named is T1, Cannabinoid receptor 2. Kind of data set: Positive allosteric modulator activity at human CB2R expressed in CHO-K1 cells assessed as potentiation of CP55940-stimulated beta-arrestin2 recruitment measured after 90 mins by PathHunter assay. The format is cell-based. A general note: Activated receptors often draw arrestin, which recruitment assays turn into a signal.

The target in data set [6] is T1, Cannabinoid receptor 2. Put plainly: Positive allosteric modulator activity at human CB2R expressed in CHO-K1 cells assessed as potentiation of CP55940-stimulated inhibition of forskolin-induced cAMP accumulation measured after 90 mins by HitHunter cAMP assay relative to control. The class given is functional, cell-based. The conditions noted are these: filed as positive allosteric modulator.

In data set [7] the target is T1, Cannabinoid receptor 2. Put plainly: Positive allosteric modulator activity at human CB2R expressed in CHO-K1 cell membrane assessed as CP55940 Emax for [35S]GTPgammaS binding at 1 nM measured after 90 mins by liquid scintillation counting analysis (reference value: 57 +/-1.5%). The format is functional, cell membranes. The conditions noted are these: filed as positive allosteric modulator. (In general: Binding of GTPγS marks nucleotide exchange on a G protein.)

Data set [8] deals with T1, Cannabinoid receptor 2. Kind of data set: Inhibition of [35S]GTPgammaS binding at human CB2R expressed in CHO-K1 cell membrane at 0.001 to 10 uM measured after 90 mins by liquid scintillation counting analysis. The format is cell membranes. The conditions noted are these: cho-k1, 1.5 h, dose 0.001-10 µM.
A further data set deals with Cannabinoid receptor 1 (Homo sapiens, UniProt P21554). Kind of data set: Modulation of human CB1R expressed in CHO-K1 cell membrane assessed as effect on [3H]CP55940 binding at 0.001 to 10 uM measured after 60 mins by liquid scintillation spectrometry. The conditions noted are these: cho-k1, 1 h, dose 0.001-10 µM. The class given is cell membranes.
In data set [9] the target is T1, Cannabinoid receptor 2. Kind of data set: Positive allosteric modulator activity at human CB2R expressed in CHO-K1 cell membrane assessed as CP55940 Emax for [35S]GTPgammaS binding at 100 nM measured after 90 mins by liquid scintillation counting analysis (reference value: 57 +/-1.5%). The format is functional, cell membranes. The conditions noted are these: filed as positive allosteric modulator.

For data set [10], the target named is T1, Cannabinoid receptor 2. Put plainly: Stimulation of [35S]GTPgammaS binding at human CB2R expressed in CHO-K1 cell membrane at 0.001 to 10 uM measured after 90 mins by liquid scintillation counting analysis. The class given is cell membranes. The conditions noted are these: cho-k1, 1.5 h, dose 0.001-10 µM.
Data set [11] has as its target T1, Cannabinoid receptor 2. Put plainly: Positive allosteric modulator activity at human CB2R expressed in CHO-K1 cell membrane assessed as increase in [3H]CP55940 binding at 0.001 to 1 microM measured after 60 mins by liquid scintillation spectrometry. The format is cell membranes. The conditions noted are these: dose 0.001-1 µM.
Data set [12] addresses T1, Cannabinoid receptor 2. Put plainly: Inverse agonist activity at human CB2R expressed in CHO-K1 cell membrane assessed as decrease in [35S]GTPgammaS binding at 1 to 10 uM measured after 90 mins by liquid scintillation counting analysis. The conditions noted are these: cho-k1, 1.5 h, dose 1-10 µM. The class given is cell membranes.
Where [13] appears, read: filed as positive allosteric modulator.

The values below come from ChEMBL document CHEMBL4819018, “Variously substituted 2-oxopyridine derivatives: Extending the structure-activity relationships for allosteric modulation of the cannabinoid CB2 receptor” (Eur J Med Chem, 2021).

By Emax is commonly meant the size of the effect at its maximum, as opposed to the concentration needed. The EC50 is the concentration that produces a half-maximal response.

Each structure is given as a SMILES string. Activity calls are given as the source filed them. No cut-off for these calls is given here. Where only a bound is given, the exact number is not on record here.

T1 sequence (P34972 whole entry): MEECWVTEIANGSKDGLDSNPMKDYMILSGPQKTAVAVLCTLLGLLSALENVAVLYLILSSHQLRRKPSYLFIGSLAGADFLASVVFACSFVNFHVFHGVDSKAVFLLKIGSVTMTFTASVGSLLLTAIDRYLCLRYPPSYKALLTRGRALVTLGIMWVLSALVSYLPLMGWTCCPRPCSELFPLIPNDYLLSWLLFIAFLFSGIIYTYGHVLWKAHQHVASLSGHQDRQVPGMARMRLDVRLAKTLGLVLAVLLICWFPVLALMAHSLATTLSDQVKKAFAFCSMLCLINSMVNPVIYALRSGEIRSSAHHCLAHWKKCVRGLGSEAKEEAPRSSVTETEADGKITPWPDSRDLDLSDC
Chain of Cannabinoid receptor 1 (P21554 whole entry): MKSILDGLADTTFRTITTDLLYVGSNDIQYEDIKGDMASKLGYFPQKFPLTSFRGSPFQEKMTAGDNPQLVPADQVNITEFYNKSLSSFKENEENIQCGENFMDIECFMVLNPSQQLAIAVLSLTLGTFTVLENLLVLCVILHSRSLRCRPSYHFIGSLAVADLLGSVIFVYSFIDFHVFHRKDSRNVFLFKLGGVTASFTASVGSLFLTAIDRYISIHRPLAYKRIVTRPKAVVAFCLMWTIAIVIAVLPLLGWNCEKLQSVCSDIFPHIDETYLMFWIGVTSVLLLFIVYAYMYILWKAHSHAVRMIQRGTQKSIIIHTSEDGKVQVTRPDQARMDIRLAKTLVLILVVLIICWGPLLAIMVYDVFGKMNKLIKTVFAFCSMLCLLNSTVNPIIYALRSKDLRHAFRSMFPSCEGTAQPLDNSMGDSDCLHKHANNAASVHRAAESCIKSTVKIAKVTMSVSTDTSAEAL

As for `Cc1c(Br)cn(Cc2ccc(Br)cc2)c(=O)c1NC(=O)C1CCCCCC1`, the result at Cannabinoid receptor 2 [1] (setting [13]) was Active. Besides, the outcome at Cannabinoid receptor 2 [2] was inactive.
As for `Cc1c(Br)cn(Cc2cccc(F)c2)c(=O)c1NC(=O)C1CCCCCC1`, on Cannabinoid receptor 2 [1], the result was inactive.
Same read-out and setting: for `CCCCCn1cc(Br)c(C)c(NC(=O)C2CCCCCC2)c1=O` the value was “inactive”; for `Cc1c(Br)cn(Cc2ccc(I)cc2)c(=O)c1NC(=O)C1CCCCCC1`, “inactive”; for `Cc1c(Br)cn(Cc2ccc(F)cc2)c(=O)c1NC(=O)OC1CCCCCC1`, “inactive”.
The same measure, in the same setting: the entry for `Cc1c(Br)cn(Cc2ccc(Cl)cc2)c(=O)c1NC(=O)C1CCCCCC1` is “inactive”.
The same measure, in the same setting: for `Cc1c(Br)cn(CCCCCO)c(=O)c1NC(=O)C1CCCCCC1` the value was “inactive”.
Turning to `Cc1c(Br)cn(Cc2ccc(F)cc2)c(=O)c1NC(=O)C1CCCCCC1`, the values for the maximum response (Emax) on Cannabinoid receptor 2 [3] and at Cannabinoid receptor 2 [6] were 79% and 91%, respectively. For the same molecule, the EC50 came to 3.8 nM on Cannabinoid receptor 2 [4] and 17 nM at Cannabinoid receptor 2 [5].
`Cc1c(Br)cn(CCN2CCOCC2)c(=O)c1NC(=O)C1CCCCCC1`: the outcome on Cannabinoid receptor 2 [1] was inactive.
On the same count and under the same terms, for `CCCCCC(=O)Nc1c(C)c(Br)cn(Cc2ccc(F)cc2)c1=O` the value was “inactive”; for `Cc1c(Br)cn(Cc2ccc(F)cc2)c(=O)c1NC(=O)c1ccccc1`, “inactive”.
For the molecule `Cc1c(Br)cn(Cc2ccccc2Cl)c(=O)c1NC(=O)C1CCCCCC1`, the Emax on Cannabinoid receptor 2 [3] amounted to 75%; on Cannabinoid receptor 2 [7], 73%; on Cannabinoid receptor 2 [9], 67%; at Cannabinoid receptor 2 [6], 101%. Besides, the result on Cannabinoid receptor 2 [1] (setting [13]) was Active. Also, the “inhibition (INH)” value at Cannabinoid receptor 2 [8] is on record as “Not Active”. For the same molecule, the results for the Activity result on Cannabinoid receptor 1, at Cannabinoid receptor 2 [10] and on Cannabinoid receptor 2 [11] (setting [13]) were “Not Active”, “Not Active” and 40%, respectively. Further, the EC50 at Cannabinoid receptor 2 [4] worked out at 15 nM; at Cannabinoid receptor 2 [5], 150 nM. Besides, the outcome on Cannabinoid receptor 2 [2] was inactive.
Regarding `Cc1c(Br)cn(Cc2ccc(F)cc2)c(=O)c1NC(=O)C1CCC(C)CC1` (centres undefined), the outcome on Cannabinoid receptor 2 [1] was inactive.
For the molecule `Cc1c(Br)cn(Cc2ccc(F)cc2)c(=O)c1[N+](=O)[O-]`, the outcome on Cannabinoid receptor 2 [1] was inactive.
Consider `Cc1c(Br)cn(Cc2ccccc2)c(=O)c1NC(=O)C1CCCCCC1`, for which, at Cannabinoid receptor 2 [1], the outcome was inactive.
On the same count and under the same terms, for `Cc1c(Br)cn(Cc2ccc(F)cc2)c(=O)c1N` the value was “inactive”; for `Cc1c(Br)cn(Cc2ccc(F)cc2)c(=O)c1NC(=O)NC1CCCCCC1`, “inactive”; for `CC(=O)Nc1c(C)c(Br)cn(Cc2ccc(F)cc2)c1=O`, “inactive”.
As to `Cc1c(Br)cn(Cc2ccccc2F)c(=O)c1NC(=O)C1CCCCCC1`, the Emax at Cannabinoid receptor 2 [3] worked out at 51%; at Cannabinoid receptor 2 [7], 51%; on Cannabinoid receptor 2 [9], 72%; at Cannabinoid receptor 2 [6], 120%. Moreover, the result at Cannabinoid receptor 2 [1] (setting [13]) was Active. Also, the Activity entry at Cannabinoid receptor 1 is “Not Active”; on Cannabinoid receptor 2 [12], “Active”; on Cannabinoid receptor 2 [11], 20%. The 50% effective concentration (EC50) at Cannabinoid receptor 2 [4] and on Cannabinoid receptor 2 [5] was greater than 10000 nM in each case. Besides, the outcome on Cannabinoid receptor 2 [2] was inactive.
